Assay results: publication PMC7665192, “A natriuretic peptide from Arabidopsis thaliana (AtPNP-A) can modulate catalase 2 activity” (Scientific Reports, 2020)
Positions of bridges follow the written chain, without caps; N, C: chain ends. Residues, ends and D or L forms follow the SMILES beside them. *: point of attachment. Biotin = O=C1N[C@H]2[C@H](CS[C@H]2CCCCC(=O)*)N1

Experiments:
bovine liver CAT = target: T1, bovine liver CAT (Bos taurus, UniProt P00432); experiment: SPR kinetic analysis, bovine liver CAT immobilized on CM5 chip; format: binding
T1 construct: bovine liver CAT (C-40; Sigma); purchased Sigma C-40; host or cells: bovine liver (tissue-derived enzyme)
T1 sequence (P00432 2-527 limits assumed): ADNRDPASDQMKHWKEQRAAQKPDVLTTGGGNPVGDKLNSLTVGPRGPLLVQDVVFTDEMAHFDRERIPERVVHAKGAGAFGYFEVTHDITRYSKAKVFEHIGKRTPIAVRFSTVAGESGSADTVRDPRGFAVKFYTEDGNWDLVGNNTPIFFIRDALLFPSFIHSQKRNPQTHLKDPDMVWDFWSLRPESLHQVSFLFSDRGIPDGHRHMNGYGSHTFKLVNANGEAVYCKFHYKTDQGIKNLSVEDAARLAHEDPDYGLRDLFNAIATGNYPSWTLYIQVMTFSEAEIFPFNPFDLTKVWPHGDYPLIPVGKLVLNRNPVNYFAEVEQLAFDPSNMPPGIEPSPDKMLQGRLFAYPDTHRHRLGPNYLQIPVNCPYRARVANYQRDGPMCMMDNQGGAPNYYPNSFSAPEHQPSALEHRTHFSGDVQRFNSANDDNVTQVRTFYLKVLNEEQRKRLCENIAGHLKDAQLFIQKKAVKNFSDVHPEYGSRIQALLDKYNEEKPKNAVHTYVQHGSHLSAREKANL
Experimental: SPR experiments were performed at 20 °C on Biacore T100 instrument operated using Biacore T100 control software (version 2.0.2, GE Healthcare Lifesciences) using Series S CM5 or NTA sensor chips as described in[21]. Kinetic analyses were performed at the flow of 100 μL min^−1 with pAtPNP-A (at 3.78 μM and consecutive twofold dilutions; 11 injections included) employed as a ligand and bovine liver CAT (C-40; Sigma) used as an analyte and immobilized on the active surface of the Series S CM5 sensor chip with amine coupling kit, while the surface regeneration was done with solution of glycine, pH 2.0, and the final sensorgram was generated with Scrubber (BioLogic Software Pty Ltd).

CAT2 recombinant (rCAT2) = experiment: SPR, rCAT2 immobilized on NTA chip; format: binding, Arabidopsis thaliana; conditions: His-tagged rCAT2 immobilized at app. 4,500 RU, analytes at the same concentration, 20 °C
Experimental: N-terminally 6xHis-tagged AtPNP-A and CAT2 proteins were expressed in BL21 (DE3) One Shot E. coli cells (Life Technologies), purified by affinity chromatography with Ni–NTA beads (Qiagen) and HisTrap HP column (GE Healthcare Lifesciences) as described in[21]. The purity of preparations was verified on 12.5% SDS-PAGE, stained with Coomassie Brilliant Blue (Bio-Rad). Protein identities were confirmed in MS analysis, and protein concentration was determined according to the method of Bradford using BSA as a standard.
SPR experiments were performed at 20 °C on Biacore T100 instrument operated using Biacore T100 control software (version 2.0.2, GE Healthcare Lifesciences) using Series S CM5 or NTA sensor chips as described in[21]. […]
Figure 2 AtPNP-A directly interacts with Arabidopsis CAT2 and bovine liver CAT in vitro. […] The models were analyzed and visualized using UCSF Chimera (version 1.10.2; https://www.cgl.ucsf.edu/chimera/)[55]. […]

CAT2 = experiment: Bimolecular fluorescence complementation (BiFC); format: cell-based, Arabidopsis thaliana; conditions: chloroplasts of tobacco leaf protoplasts; NeYFP/CeYFP fusions; mean ± SEM, n = 30, P < 0.0001
Source text: The full-length A. thaliana AtPNP-A (At2g18660) coding region entry plasmid pENTRYAtPNP-A[46] and pCR8/GW-TOPOCAT2 were recombined separately with both pSITE-nEYFP-C1 [GenBank Accession Number GU734651] and pSITE-cEYFP-C1 [GenBank Accession Number GU734652] to create pNeYFP-AtPNP-A, pCeYFP-AtPNP-A, pNeYFP-CAT2 and pCeYFP-CAT2, respectively. Each plasmid has either the N-terminal (NeYFP) or C-terminal (CeYFP) fragment of eYFP followed by either AtPNP-A or CAT2 coding region driven by the 35S plant expression promoter. After sequence was confirmed each plasmid was transformed separately into Agrobacterium tumefaciens strain GV3101 (pMP90). Tobacco leaves were infiltrated as previously described in[50]. Briefly, A. tumefaciens strains grown in 2YT medium were harvested by centrifugation and resuspended in infiltration medium (10 mM MES pH 5.6, 10 mM MgCl2, 150 µM acetosyringone) to a final OD600 of 0.2. Equal volumes of infiltration media containing relevant BiFC strains were mixed and infiltrated into the underside of tobacco leaves using a needleless syringe. Leaves were harvested after 3 days to isolate protoplasts following[51] and then immediately imaged.
BiFC images were captured at the La Trobe University LIMS BioImaging Facility using a LSM 510 confocal laser scanning microscope (Zeiss), with a × 40/1.2 water immersion objective. The natural red autofluorescence of chlorophyll was used as a marker for chloroplasts. Excitation/emission wavelengths were 488/505–530 nm for YFP and 561/650 nm long pass for red fluorescence. At least three images containing one or more protoplasts were taken for each of the plasmid construct combinations. Each image captured three separate filter scans, including YFP, red fluorescence and bright field. Post-processing of images was performed with ImageJ version 1.48 software (https://imagej.nih.gov/ij/). For each image the contrast for each panel was set at automatic contrast. A merged image was generated for reference with a 10 µm scale bar. The red fluorescence only panel was used to encircle ten chloroplasts as region of interest (ROI), then the YFP fluorescence (BiFC) calculated for each ROI was divided by the red fluorescence calculated for the same ROI. All BiFC/red fluorescence points were plotted using GraphPadPrism7 (GraphPadSoftware). Mean and standard error were calculated for each BiFC combination. All statistical analyses were performed using GraphPadPrism7.
Figure 4 AtPNP-A interacts with CAT2 in vivo. […] Exemplar merged images of protoplasts isolated from a leaf infiltrated with different combinations of N- or C-terminally tagged CAT2 and AtPNP-A are shown. (g) BiFC/Red fluorescence chloroplast analysis with mean ± SEM in pink.

Chi2, average squared residual (bovine liver CAT; SPR kinetic fit, 20 °C) | U-value, uniqueness value for kinetic rate constants (bovine liver CAT; SPR kinetic fit, 20 °C) | Specificity of binding to bovine CAT (bovine liver CAT; SPR, both ligand-analyte configurations, amine coupling) | Compound | SPR binding response to rCAT2 (CAT2 recombinant (rCAT2)) | BiFC / Red fluorescence signal, interaction with CAT2 (CAT2)
10.4 RU2 | 2 | points to a specific interaction | CC(C)C[C@@H]1NC(=O)[C@H](CC(N)=O)NC(=O)[C@H](CC(N)=O)NC(=O)[C@H](CCCCN)NC(=O)[C@H](C(C)C)NC(=O)CNC(=O)[C@H](C(C)C)NC(=O)[C@H](C(C)C)NC(=O)[C@H](CC(C)C)NC(=O)[C@H]([C@@H](C)O)NC(=O)[C@H](CCC(=O)O)NC(=O)[C@H](CCCNC(=N)N)NC(=O)[C@H](CCC(N)=O)NC(=O)[C@H]([C@@H](C)O)NC(=O)CNC(=O)[C@H](Cc2ccc(O)cc2)NC(=O)[C@@H](NC(=O)[C@H](C)NC(=O)[C@H](CO)NC(=O)[C@H](CCCNC(=N)N)NC(=O)[C@@H](NC(=O)[C@H](Cc2ccc(O)cc2)NC(=O)[C@@H]2CCCN2)[C@@H](C)O)CSSC[C@@H](C(=O)NCC(=O)N[C@@H](CCCNC(=N)N)C(=O)N[C@@H](CCCNC(=N)N)C(=O)N[C@@H](Cc2ccc(O)cc2)C(=O)N[C@@H](CCCNC(=N)N)C(=O)N[C@H](C(=O)N[C@@H](CCCNC(=N)N)C(=O)N[C@@H](CCCCNC(=O)CCCC[C@@H]2SC[C@@H]3NC(=O)N[C@@H]32)C(=O)O)C(C)C)NC(=O)[C@H](C)NC(=O)[C@H](CCCNC(=N)N)NC(=O)CNC(=O)[C@H](CC(N)=O)NC(=O)[C@H](CCC(N)=O)NC(=O)[C@H](Cc2c[nH]c3ccccc23)NC1=O [pAtPNP-A] (H-PYTRSACYGTQRETLVVGVKNNLWQNGRACGRRYRVRK(Biotin)-OH; disulfide 7-30; N-terminus and C-terminus assumed) | significant accumulation of the biologically active analyte | 
 |  |  | AtPNP-A: An A. thaliana PNP, termed AtPNP-A (At2g18660; Q9ZV52) |  | interaction of the proteins in chloroplasts of protoplasts
